Data: ChEMBL document CHEMBL3039007, “Structure-based identification of OATP1B1/3 inhibitors” (Mol Pharmacol, 2013)
Where “and” joins values, the source holds several entries; their conditions need not be identical. Equal entries are not always repeated.

Assays:
[1] = molecular target: T1, Solute carrier organic anion transporter family member 1B1 (Homo sapiens, UniProt Q9Y6L6)
T1 sequence (Q9Y6L6 whole entry): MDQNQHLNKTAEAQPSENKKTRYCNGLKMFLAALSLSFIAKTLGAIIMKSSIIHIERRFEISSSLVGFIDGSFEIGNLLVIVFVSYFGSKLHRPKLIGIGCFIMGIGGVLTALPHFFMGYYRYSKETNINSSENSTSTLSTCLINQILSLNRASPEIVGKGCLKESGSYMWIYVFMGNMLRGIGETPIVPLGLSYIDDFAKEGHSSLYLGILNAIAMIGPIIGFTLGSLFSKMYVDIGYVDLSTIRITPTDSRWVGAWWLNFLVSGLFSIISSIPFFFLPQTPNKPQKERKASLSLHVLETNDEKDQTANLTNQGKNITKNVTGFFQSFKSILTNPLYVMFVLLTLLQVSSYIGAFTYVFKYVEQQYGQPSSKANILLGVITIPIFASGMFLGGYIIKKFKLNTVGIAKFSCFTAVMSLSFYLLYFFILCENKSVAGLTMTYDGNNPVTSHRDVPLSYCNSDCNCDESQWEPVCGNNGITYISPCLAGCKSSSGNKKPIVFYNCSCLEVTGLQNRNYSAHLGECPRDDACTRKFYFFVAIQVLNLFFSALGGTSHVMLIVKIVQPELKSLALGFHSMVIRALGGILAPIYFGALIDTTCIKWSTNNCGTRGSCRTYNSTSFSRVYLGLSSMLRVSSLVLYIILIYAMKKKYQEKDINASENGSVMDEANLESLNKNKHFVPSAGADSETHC

[2] = molecular target: T1, Solute carrier organic anion transporter family member 1B1; details: chinese hamster, cho, 10 µM
[3] = molecular target: T1, Solute carrier organic anion transporter family member 1B1; remark: listed apart in the source
[4] = molecular target: T2, Solute carrier organic anion transporter family member 1B3 (Homo sapiens, UniProt Q9NPD5)
T2 sequence (Q9NPD5 whole entry): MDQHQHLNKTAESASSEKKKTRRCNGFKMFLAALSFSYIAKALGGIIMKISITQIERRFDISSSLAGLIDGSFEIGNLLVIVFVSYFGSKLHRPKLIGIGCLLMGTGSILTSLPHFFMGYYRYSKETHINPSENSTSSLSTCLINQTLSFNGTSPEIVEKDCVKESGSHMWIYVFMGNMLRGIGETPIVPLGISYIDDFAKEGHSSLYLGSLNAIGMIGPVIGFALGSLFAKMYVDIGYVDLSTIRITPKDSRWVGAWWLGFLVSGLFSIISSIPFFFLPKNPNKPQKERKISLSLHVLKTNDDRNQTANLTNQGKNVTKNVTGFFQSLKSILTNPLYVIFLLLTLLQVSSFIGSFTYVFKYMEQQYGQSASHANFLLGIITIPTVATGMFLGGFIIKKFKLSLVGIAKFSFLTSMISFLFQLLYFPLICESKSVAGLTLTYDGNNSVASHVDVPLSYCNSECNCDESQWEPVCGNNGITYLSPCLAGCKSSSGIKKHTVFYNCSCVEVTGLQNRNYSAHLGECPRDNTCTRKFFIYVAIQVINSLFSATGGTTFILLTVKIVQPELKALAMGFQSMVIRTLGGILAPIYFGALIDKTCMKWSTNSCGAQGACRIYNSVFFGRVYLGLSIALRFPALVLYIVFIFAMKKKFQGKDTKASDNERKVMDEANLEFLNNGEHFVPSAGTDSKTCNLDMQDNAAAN

[5] = molecular target: T2, Solute carrier organic anion transporter family member 1B3; details: chinese hamster, cho, 10 µM
[6] = molecular target: T2, Solute carrier organic anion transporter family member 1B3; remark: listed apart in the source

| Compound | IC50 [1] [µM] | residual activity [2] | Ki [3] [µM] | Ki [4] [µM] | residual activity [5] [%] | IC50 [6] [µM] |
| --- | --- | --- | --- | --- | --- | --- |
| CCCc1nc2c(C)cc(-c3nc4ccccc4n3C)cc2n1Cc1ccc(-c2ccccc2C(=O)O)cc1 | 1.86 | 77.57% | 1.03 | 0.96 | 41.88 | 1.26 |
| CC(C)=CCC[C@]1(C)C=Cc2c(O)c3c(c(CC=C(C)C)c2O1)O[C@]12C(C[C@@H]4C[C@H]1C(C)(C)O[C@@]2(C/C=C(/C)C(=O)O)C4O)C3=O (stereo partly drawn) | 2 | 12.48% | 1.1 | 2.16 | 4.414 | 2.82 |
| CC1(C)[C@@H](O)C=C[C@]2(C)[C@H]3CC[C@@]4(C)[C@H](c5ccoc5)OC(=O)[C@H]5O[C@]54[C@]3(C)C(=O)C[C@@H]12 | 2.4 | 10.83% | 1.33 | 3.81 | 22.22 | 5.01 |
| C[C@@H]1O[C@H](O[C@@H]2[C@@H](O)[C@H](O[C@@H]3[C@@H](O)[C@@H](O)[C@@H](O[C@H]4[C@@H](OC(=O)[C@]56CCC(C)(C)C[C@@H]5C5=CC[C@@H]7[C@@]8(C)CC[C@H](O[C@@H]9O[C@H](CO)[C@@H](O)[C@H](O)[C@H]9O)C(C)(C)[C@@H]8CC[C@@]7(C)[C@]5(C)C[C@H]6O)OC[C@@H](O)[C@@H]4O)O[C@H]3C)OC[C@H]2O)[C@H](O)[C@H](O)[C@H]1O | 3.31 | 25.14% | 1.82 | 4.02 | 17.42 | 5.25 |
| C=C1[C@@H]2CC[C@@]3(C)[C@H](c4ccoc4)OC(=O)C[C@]13O[C@H]1C[C@H](OC(C)=O)C(C)(C)[C@H](CC(=O)OC)[C@]12C | 0.933 | 13.98% | 0.51 | 3.47 | 21.87 | 4.47 |
| CC(=O)O[C@@H]1CC[C@]2(C)[C@H](C[C@@H](OC(C)=O)[C@]3(C)C4=CC(=O)O[C@H](c5ccoc5)[C@@]4(C)CC[C@@H]23)C1(C)C | 0.813 | 18.95% | 0.44 | 1.08 | 8.019 | 1.41 |
| CC1(C)C(=O)[C@@H]2O[C@@H]2[C@]2(C)[C@H]3CC[C@@]4(C)[C@H](c5ccoc5)OC(=O)[C@H]5O[C@]54[C@]3(C)[C@H](O)C[C@@H]12 | 1.58 | 12.73% | – | – | 21.3 | 2.95 |
| CC(=O)O[C@@H]1C[C@@H]2C(C)(C)[C@H](O)C=C[C@@]2(C)[C@@H]2CC[C@@]3(C)C(=CC(=O)O[C@@H]3c3ccoc3)[C@@]12C | 2.19 | 6.132% | 1.21 | 2.89 | 23.16 | 3.72 |
| CC(=O)O[C@@H]1C[C@@H]2C(C)(C)C(=O)C=C[C@@]2(C)[C@@H]2CC[C@@]3(C)C(=CC(=O)O[C@@H]3c3ccoc3)[C@@]12C | 1.51 | 8.693% | 0.83 | 2.89 | 22.73 | 3.8 |
| O=C(O[C@@H]1Cc2c(O)cc(O)cc2O[C@@H]1c1cc(O)c(O)c(O)c1-c1c([C@H]2Oc3cc(O)cc(O)c3C[C@H]2O)cc(O)c(O)c1O)c1cc(O)c(O)c(O)c1 [2',2'-BISEPIGALLOCATECHIN MONOGALLATE] | 3.72 | 31.07% | 2.05 | 6.5 | 18.79 | 8.51 |
| CC[C@H]1OC(=O)[C@H](C)[C@@H](O[C@H]2C[C@@](C)(OC)[C@@H](O)[C@H](C)O2)[C@H](C)[C@@H](O[C@@H]2O[C@H](C)C[C@H](N(C)C)[C@H]2O)[C@](C)(OC)C[C@@H](C)C(=O)[C@H](C)[C@@H](O)[C@]1(C)O [CLARITHROMYCIN] | 3.09 | 56.72% | – | – | 80.47 | 3.31 |
| Cc1ccc(C)c(OCCCC(C)(C)C(=O)O)c1 [GEMFIBROZIL] | 4.07 | 56.21% | – | – | 71.16 | 7.08 |
| Cc1cc2c(C(C)C)c(O)c(O)c(C=O)c2c(O)c1-c1c(C)cc2c(C(C)C)c(O)c(O)c(C=O)c2c1O [GOSSYPOL] | 3.24 | 24.45% and 68.48% | 1.78 | 3.47 | – | 4.57 |
| CC[C@H]1OC(=O)[C@H](C)C(=O)[C@H](C)[C@@H](O[C@@H]2O[C@H](C)C[C@H](N(C)C)[C@H]2O)[C@](C)(OC)C[C@@H](C)C(=O)[C@H](C)[C@H]2N(CCCCn3cnc(-c4cccnc4)c3)C(=O)O[C@]12C [TELITHROMYCIN] | 3.47 | 62.01% | – | – | 60.1 | 5.89 |

Next, values leading:

| IC50 [1] [µM] | residual activity [2] | Ki [3] [µM] | Ki [4] [µM] | residual activity [5] [%] | IC50 [6] [µM] | Compound |
| --- | --- | --- | --- | --- | --- | --- |
| 6.31 | 54.82% | 3.44 | 2.55 | 48.28 | 3.31 | CC1(C)C(=O)CC[C@]2(C)[C@@H]1C[C@@H](O)[C@]1(C)C3=CC(=O)O[C@H](c4ccoc4)[C@@]3(C)CC[C@@H]21 |
| 3.55 | 22.81% | 1.94 | 5.99 | 54.65 | 7.76 | CC(=O)O[C@@H]1C[C@H]2C(C)(C)C(=O)CC[C@]2(C)[C@H]2CC[C@]3(C)C(=CC(=O)O[C@H]3c3ccoc3)[C@@]21C |
| 0.871 | 20.57% | 0.48 | 3.05 | 46.1 | 3.98 | CC(=O)O[C@H]1C[C@@H](OC(C)=O)C(C)(C)[C@@H]2C[C@@H](OC(C)=O)[C@]3(C)[C@H]([C@H](OC(C)=O)C[C@@]4(C)[C@H](c5ccoc5)OC(=O)[C@H]5O[C@@]534)[C@@]12C |
| 0.977 | 14.28% | 0.54 | 2.27 | 9.535 | 2.95 | CC(=O)O[C@H]1C[C@@H](OC(C)=O)C(C)(C)[C@@H]2C[C@@H](O)[C@@]3(C)[C@H](CC[C@]4(C)[C@@H](c5ccoc5)OC(=O)[C@H]5O[C@@]534)[C@@]12C |
| 11.2 | 19.79% | – | – | 5.189 | 11.5 | CC(=O)O[C@H]1CC[C@]2(C)[C@H]3C(=O)C=C4[C@@H]5[C@@H](C)[C@H](C)CC[C@]5(C(=O)O)CC[C@@]4(C)[C@]3(C)CC[C@H]2C1(C)C [11-OXOURSOLIC ACID ACETATE] |
| 2.69 | 7.365% | 1.47 | 4.08 | 33.77 | 5.25 | CC(C)C1=CC2=CC[C@@H]3[C@](C)(CCC[C@@]3(C)C(=O)O)[C@H]2CC1 [ABIETIC ACID] |
| 1.7 | 20.54% | – | – | 23.84 | 3.24 | CC(=O)O[C@@H]1C[C@H]2C(C)(C)[C@@H](O)CC[C@]2(C)[C@H]2CC[C@@]3(C)[C@H](c4ccoc4)OC(=O)[C@H]4O[C@]43[C@@]21C [beta-DIHYDROGEDUNOL] |
